Source: PMC5218480 (PLoS ONE, 2017)

Test system: MV-4-11 cells
Test: Gene expression microarray analysis (Affymetrix PrimeView) and GSEA
Type: cell-based, human
Set-up: RFU PODN (11730768_x_at) / Fold change /veh PODN (11730768_x_at) / RFU LINC00158 (11744669_a_at) / Fold change /veh LINC00158 (11744669_a_at) / RFU DUSP10 (11751237_a_at) / Fold change /veh DUSP10 (11751237_a_at) / RFU ID3 (11757404_x_at) / Fold change /veh ID3 (11757404_x_at) / RFU PLEKHG5 (11737974_s_at) / Fold change /veh PLEKHG5 (11737974_s_at) / RFU LRRC4B (11730491_at) / Fold change /veh LRRC4B (11730491_at) / RFU GIMAP4 (11747438_a_at) / Fold change /veh GIMAP4 (11747438_a_at) / RFU KRT8 (11758183_x_at) / Fold change /veh KRT8 (11758183_x_at) / RFU CNN1 (11734310_a_at) / Fold change /veh CNN1 (11734310_a_at) / RFU VPS37D (11726825_at) / Fold change /veh VPS37D (11726825_at) / RFU C10orf10 (11716522_x_at) / Fold change /veh C10orf10 (11716522_x_at) / RFU KIR2DL2 /// KIR2DL4 /// KIR2DL5A /// KIR2DL5B /// KIR2DS1 /// KIR2DS2 /// KIR2DS3 /// KIR2DS4 /// KIR3DL3 /// KIR3DL3 /// KIR3DS1 (11738374_at) / Fold change /veh KIR2DL2 /// KIR2DL4 /// KIR2DL5A /// KIR2DL5B /// KIR2DS1 /// KIR2DS2 /// KIR2DS3 /// KIR2DS4 /// KIR3DL3 /// KIR3DL3 /// KIR3DS1 (11738374_at) / RFU C1QL1 (11718748_at) / Fold change /veh C1QL1 (11718748_at) / RFU TMPRSS4 (11747572_a_at) / Fold change /veh TMPRSS4 (11747572_a_at) / RFU HAMP (11756126_x_at) / Fold change /veh HAMP (11756126_x_at) / RFU RNFT2 (11725882_a_at) / Fold change /veh RNFT2 (11725882_a_at) / RFU NR4A2 (11747474_a_at) / Fold change /veh NR4A2 (11747474_a_at) / RFU ABCC12 (11746883_a_at) / Fold change /veh ABCC12 (11746883_a_at) / RFU TMEM136 (11760407_x_at) / Fold change /veh TMEM136 (11760407_x_at) / RFU CLDN22 /// WWC2 (11732394_at) / Fold change /veh CLDN22 /// WWC2 (11732394_at) / RFU HLA-DPB1 (11760878_x_at) / Fold change /veh HLA-DPB1 (11760878_x_at) / RFU SPINT1 (11716480_a_at) / Fold change /veh SPINT1 (11716480_a_at) / RFU GAP43 (11754022_s_at) / Fold change /veh GAP43 (11754022_s_at) / RFU A4GNT (11735810_at) / Fold change /veh A4GNT (11735810_at) / RFU PRB3 (11715151_x_at) / Fold change /veh PRB3 (11715151_x_at) / RFU TUBB4B (11761932_at) / Fold change /veh TUBB4B (11761932_at) / RFU CAPN14 (11732068_a_at) / Fold change /veh CAPN14 (11732068_a_at) / RFU TMCC2 (11721928_a_at) / Fold change /veh TMCC2 (11721928_a_at) / RFU IRGQ (11745062_a_at) / Fold change /veh IRGQ (11745062_a_at) / RFU FAM174B (11720279_a_at) / Fold change /veh FAM174B (11720279_a_at) / RFU TMPRSS4 (11748680_a_at) / Fold change /veh TMPRSS4 (11748680_a_at) / RFU FAM212B (11763350_a_at) / Fold change /veh FAM212B (11763350_a_at) / RFU PLEKHG5 (11743358_a_at) / Fold change /veh PLEKHG5 (11743358_a_at) / RFU ZSCAN30 (11745921_a_at) / Fold change /veh ZSCAN30 (11745921_a_at) / RFU CMKLR1 (11741424_a_at) / Fold change /veh CMKLR1 (11741424_a_at) / RFU LOC101060620 /// MAPK8IP1 (11723275_at) / Fold change /veh LOC101060620 /// MAPK8IP1 (11723275_at) / RFU SPTSSB (11747773_x_at) / Fold change /veh SPTSSB (11747773_x_at) / RFU PRSS12 (11739890_at) / Fold change /veh PRSS12 (11739890_at) / RFU BIN1 (11741810_x_at) / Fold change /veh BIN1 (11741810_x_at) / RFU WNT11 (11732464_a_at) / Fold change /veh WNT11 (11732464_a_at) / RFU C10orf10 (11716521_a_at) / Fold change /veh C10orf10 (11716521_a_at) / RFU C5orf56 (11738089_at) / Fold change /veh C5orf56 (11738089_at) / RFU CYB561 (11721691_x_at) / Fold change /veh CYB561 (11721691_x_at) / RFU ANKRD19P (11752326_a_at) / Fold change /veh ANKRD19P (11752326_a_at) / RFU OR2T12 /// OR2T33 /// OR2T8 (11738714_s_at) / Fold change /veh OR2T12 /// OR2T33 /// OR2T8 (11738714_s_at) / RFU VCAN (11748164_a_at) / Fold change /veh VCAN (11748164_a_at) / RFU JSRP1 (11732532_at) / Fold change /veh JSRP1 (11732532_at) / RFU KRTAP10-11 (11738290_x_at) / Fold change /veh KRTAP10-11 (11738290_x_at) / RFU MYO3A (11730013_a_at) / Fold change /veh MYO3A (11730013_a_at) / RFU EBF3 (11725865_a_at) / Fold change /veh EBF3 (11725865_a_at) / RFU CAMK2N1 (11719241_x_at) / Fold change /veh CAMK2N1 (11719241_x_at) / RFU C5orf56 (11738088_a_at) / Fold change /veh C5orf56 (11738088_a_at) / RFU OLFML3 (11715873_a_at) / Fold change /veh OLFML3 (11715873_a_at) / RFU LOC100653217 /// NTM (11731650_a_at) / Fold change /veh LOC100653217 /// NTM (11731650_a_at) / RFU MAPK11 (11762145_a_at) / Fold change /veh MAPK11 (11762145_a_at) / RFU FIZ1 (11724087_x_at) / Fold change /veh FIZ1 (11724087_x_at) / RFU OASL (11726364_x_at) / Fold change /veh OASL (11726364_x_at) / RFU SOX15 (11748057_x_at) / Fold change /veh SOX15 (11748057_x_at) / RFU CD79A (11719716_a_at) / Fold change /veh CD79A (11719716_a_at) / RFU HIST1H1D (11736915_at) / Fold change /veh HIST1H1D (11736915_at) / RFU CASKIN2 (11723855_a_at) / Fold change /veh CASKIN2 (11723855_a_at) / RFU LOC730098 (11760151_x_at) / Fold change /veh LOC730098 (11760151_x_at) / RFU OR4N2 (11742367_at) / Fold change /veh OR4N2 (11742367_at) / RFU PRRT2 (11749266_a_at) / Fold change /veh PRRT2 (11749266_a_at) / RFU SNX32 (11753110_a_at) / Fold change /veh SNX32 (11753110_a_at) / RFU CDHR5 (11726645_a_at) / Fold change /veh CDHR5 (11726645_a_at) / RFU RCAN1 (11760418_a_at) / Fold change /veh RCAN1 (11760418_a_at) / RFU FAM167A (11723789_a_at) / Fold change /veh FAM167A (11723789_a_at) / RFU FAM26E (11764081_at) / Fold change /veh FAM26E (11764081_at) / RFU ISYNA1 (11749810_s_at) / Fold change /veh ISYNA1 (11749810_s_at) / RFU ACY1 (11761880_at) / Fold change /veh ACY1 (11761880_at) / RFU 11764098_at / Fold change /veh 11764098_at / RFU SAMD14 (11745864_x_at) / Fold change /veh SAMD14 (11745864_x_at) / RFU NPB (11741838_a_at) / Fold change /veh NPB (11741838_a_at) / RFU TMPRSS6 (11731388_a_at) / Fold change /veh TMPRSS6 (11731388_a_at) / RFU KRTAP10-2 (11738614_at) / Fold change /veh KRTAP10-2 (11738614_at) / RFU ARHGAP8 /// PRR5-ARHGAP8 (11727945_x_at) / Fold change /veh ARHGAP8 /// PRR5-ARHGAP8 (11727945_x_at) / RFU KRTAP5-7 /// NADSYN1 (11734609_at) / Fold change /veh KRTAP5-7 /// NADSYN1 (11734609_at) / RFU RASL12 (11751679_a_at) / Fold change /veh RASL12 (11751679_a_at) / RFU CDKN2B (11736163_a_at) / Fold change /veh CDKN2B (11736163_a_at) / RFU PRF1 (11729649_at) / Fold change /veh PRF1 (11729649_at) / RFU, ZNF638 /// ZNF638-IT1 / Fold change vs veh, ZNF638 /// ZNF638-IT1 / RFU, PANK3 / Fold change vs veh, PANK3 / RFU, SH3YL1 / Fold change vs veh, SH3YL1 / RFU, ZEB2 / Fold change vs veh, ZEB2 / RFU, NRIP1 / Fold change vs veh, NRIP1 / RFU, PTTG1IP / Fold change vs veh, PTTG1IP / RFU, CAPN2 / Fold change vs veh, CAPN2 / RFU, MED14 / Fold change vs veh, MED14 / RFU, SNORA58 / Fold change vs veh, SNORA58 / RFU, C1orf63 / Fold change vs veh, C1orf63 / RFU, LRRFIP1 / Fold change vs veh, LRRFIP1 / RFU, NDUFAF7 / Fold change vs veh, NDUFAF7 / RFU, SLC12A2 / Fold change vs veh, SLC12A2 / RFU, IBTK / Fold change vs veh, IBTK / RFU, ESF1 / Fold change vs veh, ESF1 / Fold change vs veh, TMEM50B / RFU, TAOK1 / Fold change vs veh, TAOK1 / RFU, ACBD3 / Fold change vs veh, ACBD3 / RFU, TMA16 / Fold change vs veh, TMA16 / RFU, RWDD3 / Fold change vs veh, RWDD3 / RFU, BCAT1 / Fold change vs veh, BCAT1 / RFU, EDEM3 / Fold change vs veh, EDEM3 / RFU, TMEM33 / Fold change vs veh, TMEM33 / RFU, WDR75 / Fold change vs veh, WDR75 / RFU, AHCTF1 / Fold change vs veh, AHCTF1 / RFU, TFRC / Fold change vs veh, TFRC / RFU, ZDHHC17 / Fold change vs veh, ZDHHC17 / RFU, NOM1 / Fold change vs veh, NOM1 / RFU, ARL8B / Fold change vs veh, ARL8B / RFU, ZBTB11 / Fold change vs veh, ZBTB11 / RFU, TAMM41 / Fold change vs veh, TAMM41 / RFU, KIAA1704 /// LOC100996395 / Fold change vs veh, KIAA1704 /// LOC100996395 / RFU, ING1 / Fold change vs veh, ING1 / RFU, TRMT61B / Fold change vs veh, TRMT61B / RFU, FUBP3 / Fold change vs veh, FUBP3 / RFU, TP53 / Fold change vs veh, TP53 / RFU, TNKS2 / Fold change vs veh, TNKS2 / RFU, ZFP14 / Fold change vs veh, ZFP14 / RFU, ACTR2 / Fold change vs veh, ACTR2 / RFU, PPP3R1 / Fold change vs veh, PPP3R1 / RFU, PIK3R1 / Fold change vs veh, PIK3R1 / RFU, HNRNPA1 / Fold change vs veh, HNRNPA1 / RFU, RNF170 / Fold change vs veh, RNF170 / RFU, ZNF28 / Fold change vs veh, ZNF28 / RFU, RNGTT / Fold change vs veh, RNGTT / RFU, OGT / Fold change vs veh, OGT / RFU, BRD1 / Fold change vs veh, BRD1 / RFU, MARS / Fold change vs veh, MARS / RFU, ZNF655 / Fold change vs veh, ZNF655 / RFU, FAHD1 / Fold change vs veh, FAHD1 / RFU, BDP1 / Fold change vs veh, BDP1 / RFU, LRRCC1 / Fold change vs veh, LRRCC1 / RFU, ARID1A / Fold change vs veh, ARID1A / RFU, ZNF146 / Fold change vs veh, ZNF146 / RFU, ZNF330 / Fold change vs veh, ZNF330 / RFU, GPN3 / Fold change vs veh, GPN3 / RFU, C9orf123 / Fold change vs veh, C9orf123 / RFU, N4BP2L2 / Fold change vs veh, N4BP2L2 / RFU, ARFIP1 / Fold change vs veh, ARFIP1 / RFU, FAM179B / Fold change vs veh, FAM179B / RFU, BCL10 / Fold change vs veh, BCL10 / RFU, UHRF1BP1L / Fold change vs veh, UHRF1BP1L / RFU, BET1 / Fold change vs veh, BET1 / RFU, CNOT2 / Fold change vs veh, CNOT2 / RFU, ZNF268 / Fold change vs veh, ZNF268 / Fold change vs veh, ZNF507 / RFU, DGCR2 / Fold change vs veh, DGCR2 / RFU, WDSUB1 / Fold change vs veh, WDSUB1 / Fold change vs veh, HSP90B1 /// MIR3652 / RFU, ADSS / Fold change vs veh, ADSS / RFU, GK / Fold change vs veh, GK / RFU, ZNF148 / Fold change vs veh, ZNF148 / RFU, TAF9 / Fold change vs veh, TAF9 / RFU, SLC1A5 / Fold change vs veh, SLC1A5 / RFU, SLMO2 / Fold change vs veh, SLMO2 / RFU, ABCC4 / Fold change vs veh, ABCC4 / RFU, LOC101060439 /// RAP1B / Fold change vs veh, LOC101060439 /// RAP1B / RFU, RFX7 / Fold change vs veh, RFX7 / RFU, GTPBP10 / Fold change vs veh, GTPBP10 / RFU, CNEP1R1 / Fold change vs veh, CNEP1R1 / RFU, BIVM-ERCC5 /// ERCC5 / Fold change vs veh, BIVM-ERCC5 /// ERCC5 / RFU, ILF3 / Fold change vs veh, ILF3 / RFU 11762660_at / Fold change /veh 11762660_at / RFU VCAN (11757783_s_at) / Fold change /veh VCAN (11757783_s_at) / RFU DDX43 (11728927_at) / Fold change /veh DDX43 (11728927_at) / RFU KRT8 (11758188_x_at) / Fold change /veh KRT8 (11758188_x_at) / RFU NKD1 (11759106_at) / Fold change /veh NKD1 (11759106_at) / RFU SRD5A1 (11742802_a_at) / Fold change /veh SRD5A1 (11742802_a_at) / RFU TPSAB1 /// TPSB2 (11721975_s_at) / Fold change /veh TPSAB1 /// TPSB2 (11721975_s_at) / RFU GSTM3 (11746129_a_at) / Fold change /veh GSTM3 (11746129_a_at) / RFU IL23R (11737362_x_at) / Fold change /veh IL23R (11737362_x_at) / RFU TMEM51 (11727254_a_at) / Fold change /veh TMEM51 (11727254_a_at) / RFU PIWIL2 (11732686_x_at) / Fold change /veh PIWIL2 (11732686_x_at) / RFU ORM1 (11744905_x_at) / Fold change /veh ORM1 (11744905_x_at) / RFU CCDC152 (11743942_at) / Fold change /veh CCDC152 (11743942_at) / RFU ECM1 (11717891_a_at) / Fold change /veh ECM1 (11717891_a_at) / RFU IL23R (11748794_a_at) / Fold change /veh IL23R (11748794_a_at) / RFU TNFAIP8L3 (11732012_x_at) / Fold change /veh TNFAIP8L3 (11732012_x_at) / RFU MBOAT4 (11741988_at) / Fold change /veh MBOAT4 (11741988_at) / RFU 11764193_at / Fold change /veh 11764193_at / RFU TMEM53 (11763286_at) / Fold change /veh TMEM53 (11763286_at) / RFU MAGEB2 (11727129_at) / Fold change /veh MAGEB2 (11727129_at) / RFU TMEM200A (11744735_a_at) / Fold change /veh TMEM200A (11744735_a_at) / RFU CCDC152 (11751479_a_at) / Fold change /veh CCDC152 (11751479_a_at) / RFU FAM211A (11726209_a_at) / Fold change /veh FAM211A (11726209_a_at) / RFU RGS16 (11746705_a_at) / Fold change /veh RGS16 (11746705_a_at) / RFU VCAN (11755009_s_at) / Fold change /veh VCAN (11755009_s_at) / RFU RHOB (11743442_s_at) / Fold change /veh RHOB (11743442_s_at) / RFU RGS16 (11720943_a_at) / Fold change /veh RGS16 (11720943_a_at) / RFU RGS16 (11720944_at) / Fold change /veh RGS16 (11720944_at) / RFU, VPS4B / Fold change vs veh, VPS4B / RFU, CREB1 / Fold change vs veh, CREB1 / RFU, DNAJC13 / Fold change vs veh, DNAJC13 / RFU, GNAQ / Fold change vs veh, GNAQ / RFU, CDK5R1 / Fold change vs veh, CDK5R1 / RFU, ZRANB3 / Fold change vs veh, ZRANB3 / RFU, CUL4A / Fold change vs veh, CUL4A / RFU, CCNY / Fold change vs veh, CCNY / RFU, UFL1 / Fold change vs veh, UFL1 / RFU, COG3 / Fold change vs veh, COG3 / RFU, DIAPH2 / Fold change vs veh, DIAPH2 / RFU, SKA2 / Fold change vs veh, SKA2 / RFU, AFF3 / Fold change vs veh, AFF3 / RFU, LMF1 / Fold change vs veh, LMF1 / RFU, IPO11 / Fold change vs veh, IPO11 / RFU, DFFB / Fold change vs veh, DFFB / RFU, FOXP1 / Fold change vs veh, FOXP1 / RFU, CARD8 / Fold change vs veh, CARD8 / RFU, STRN3 / Fold change vs veh, STRN3 / RFU, ADK / Fold change vs veh, ADK / RFU, RASSF2 / Fold change vs veh, RASSF2 / RFU, WIPF1 / Fold change vs veh, WIPF1 / RFU, LARP1B / Fold change vs veh, LARP1B / RFU, RASA1 / Fold change vs veh, RASA1 / RFU, RB1 / Fold change vs veh, RB1 / RFU, PPFIA1 / Fold change vs veh, PPFIA1 / RFU, MAT2A / Fold change vs veh, MAT2A / RFU, CCT5 / Fold change vs veh, CCT5 / RFU, WDR92 / Fold change vs veh, WDR92 / RFU, CUX1 / Fold change vs veh, CUX1 / RFU, TTC7A / Fold change vs veh, TTC7A / RFU, TMEM135 / Fold change vs veh, TMEM135 / RFU, DEPTOR / Fold change vs veh, DEPTOR / RFU, CPM / Fold change vs veh, CPM / RFU, DNAJB6 / Fold change vs veh, DNAJB6 / RFU, CACNA2D3 / Fold change vs veh, CACNA2D3 / RFU, DTX4 / Fold change vs veh, DTX4 / RFU, TFCP2 / Fold change vs veh, TFCP2 / RFU, GMCL1 /// GMCL1P1 / Fold change vs veh, GMCL1 /// GMCL1P1 / RFU, AEBP2 / Fold change vs veh, AEBP2 / RFU, SNHG1 /// SNORD22 /// SNORD25 /// SNORD26 /// SNORD27 /// SNORD28 /// SNORD29 /// SNORD31 / Fold change vs veh, SNHG1 /// SNORD22 /// SNORD25 /// SNORD26 /// SNORD27 /// SNORD28 /// SNORD29 /// SNORD31 / Fold change (Aza/veh), C12orf56 (ProbeSet 11735607_a_at) / Fold change (ACY-1035/veh), C12orf56 (ProbeSet 11735607_a_at) / Fold change (Aza/veh), FGFR1OP (ProbeSet 11751329_s_at) / Fold change (ACY-1035/veh), FGFR1OP (ProbeSet 11751329_s_at) / Fold change (Aza/veh), VPS36 (ProbeSet 11739960_a_at) / Fold change (ACY-1035/veh), VPS36 (ProbeSet 11739960_a_at) / RFU SYPL1 (11715823_x_at) / Fold change /veh SYPL1 (11715823_x_at) / RFU IGFBP7 (11715501_s_at) / Fold change /veh IGFBP7 (11715501_s_at) / RFU REEP3 (11722064_at) / Fold change /veh REEP3 (11722064_at) / RFU IGLL1 (11728026_x_at) / Fold change /veh IGLL1 (11728026_x_at): dose or concentration left out as unconfirmed
Details: MV-4-11 cells, 48 hours

## Nc1ncn([C@@H]2O[C@H](CO)[C@@H](O)[C@H]2O)c(=O)n1 [azacitidine]
  RFU BIN1 (11741810_x_at): 29.77 RFU
